Measured values taken from the supplement of paper PMC5412046.
Structures can show the parent of a compound that is named as a salt.

Test system: SB.msgc-1
Test: AC50 for growth inhibition (viability) (log10 M); higher = less potent
Settings: SB.msgc-1 (sporadic gastric cancer)
How it was run: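 After 48 h with compound, plates received CellTiter-Glo for 30 min at room temperature and were read for luminescence on a ViewLux. The cells were patient-derived gastric cancer lines of hereditary or sporadic origin, plated at 500 cells in 5 μL medium per 1536 well and pinned with 23 nL compound in DMSO, at 11 threefold dilutions from a final 46 μM. For the log half-maximal activity concentration, DMSO-normalised viability was fitted with four parameters and only high-quality curve classes were kept.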

Oc1nc(-c2ccc(C(F)(F)F)cc2)nc2c1CSCC2 [NVP-XAV-939]
AC50 for growth inhibition (log10 M): -4.68

C[C@@H]1C/C=C/C=C/C=C/C=C/[C@@H](O[C@@H]2O[C@H](C)[C@@H](O)[C@H](N)[C@@H]2O)C[C@@H]2O[C@](O)(C[C@@H](O)C[C@@H]3O[C@H]3/C=C/C(=O)O1)C[C@H](O)[C@H]2C(=O)O [Natamycin]
AC50 for growth inhibition (log10 M): -5.23

Cl.O[C@@H](CNC[C@H](O)[C@H]1CCc2cc(F)ccc2O1)[C@@H]1CCc2cc(F)ccc2O1 [Nebivolol]
AC50 for growth inhibition (log10 M): -4.93

NC(=O)N/N=C/c1ccc([N+](=O)[O-])o1 [Nitrofurazone]
AC50 for growth inhibition (log10 M): -4.68

COC(=O)Nc1nc2cc(C(=O)c3cccs3)ccc2[nH]1 [Nocodazole]
AC50 for growth inhibition (log10 M): -7.98

O=C(Nc1ccc(OC(F)(F)F)cc1)c1sccc1NCc1ccnc2ccccc12 [OSI-930]
AC50 for growth inhibition (log10 M): -4.73

CCCCCCCCOc1ccccc1C(=O)Nc1ccc(C(=O)OCC[N+](C)(CC)CC)cc1 [Octylonium bromide]
AC50 for growth inhibition (log10 M): -4.68

CC1COC2=C3N1\C=C(C(O)=O)/C(=O)C3=CC(=C2N4CCN(C)CC4)F (stereo unspecified) [Ofloxacin]
AC50 for growth inhibition (log10 M): -4.73

CC[C@H]1/C=C\C=C/C[C@@H](C)[C@H](O)[C@@](C)(O)C(=O)[C@@H](C)[C@H](O)[C@@H](C)C(=O)[C@@H](C)[C@H](O)[C@@H](C)/C=C/C(=O)O[C@@H]2[C@H](C)[C@H](CC1)O[C@]1(CC[C@H](C)[C@H](C[C@@H](C)O)O1)[C@H]2C [Oligomycin A]
AC50 for growth inhibition (log10 M): -8.83

CN(CC#C)C/C1=C/C2=CC=CC=C2OC3=CC=CC=C13 [Omigapil]
AC50 for growth inhibition (log10 M): -4.63

CCCCCCCCCCCC(CC1OC(=O)C1CCCCCC)OC(=O)C(CC(C)C)NC=O (stereo unspecified) [Orlistat]
AC50 for growth inhibition (log10 M): -4.78

COC(=O)Nc1nc2ccc([S+]([O-])c3ccccc3)cc2[nH]1 (stereo unspecified) [Oxfendazole]
AC50 for growth inhibition (log10 M): -4.63

CCCOc1ccc2[nH]c(NC(=O)OC)nc2c1 [Oxibendazole]
AC50 for growth inhibition (log10 M): -7.83

O=[N+]([O-])c1cn2c(n1)OC[C@@H](OCc1ccc(OC(F)(F)F)cc1)C2 [PA-824]
AC50 for growth inhibition (log10 M): -5.33

COc1ccc(-c2c(-c3ccc(O)cc3O)n[nH]c2C)cc1 [PDHK RIKEN]
AC50 for growth inhibition (log10 M): -4.37

FC1=CC=C(CN2\C=C/C=C(/C(=O)N[C@@H](COC3=CC4=C(NC(=O)N4)C=C3)C5=CC=CC=C5)C2=O)C=C1F [PDK1 inhibitor]
AC50 for growth inhibition (log10 M): -4.68

O=C(Nc1cccnc1)N1CCC(Cc2cccc(Oc3ccc(C(F)(F)F)cn3)c2)CC1 [PF-3845]
AC50 for growth inhibition (log10 M): -4.78

CC(=O)Nc1nc(C)c(-c2ccc(Cl)c([S+](=O)([O-])NCCO)c2)s1 [PIK-93]
AC50 for growth inhibition (log10 M): -5.83

CCC[S+](=O)([O-])Nc1ccc(F)c(C(=O)c2c[nH]c3ncc(Cl)cc23)c1F [PLX-4720]
AC50 for growth inhibition (log10 M): -4.83

O=C(Nc1cc(Cl)cc2c1[nH]c1cnccc12)c1cccnc1 [PS-1145]
AC50 for growth inhibition (log10 M): -4.73

O=C(O)c1cccc(-c2noc(-c3ccccc3F)n2)c1 [PTC-124]
AC50 for growth inhibition (log10 M): -4.83

CC(=O)O[C@H]1C[C@@H]2CC[C@@H]3[C@H](CC[C@@]4(C)[C@H]3C[C@H]([N+]3(C)CCCCC3)[C@@H]4OC(C)=O)[C@@]2(C)C[C@@H]1[N+]1(C)CCCCC1 [Pancuronium bromide]
AC50 for growth inhibition (log10 M): -5.53

CCCCc1ccc2[nH]c(NC(=O)OC)nc2c1 [Parbendazole]
AC50 for growth inhibition (log10 M): -6.83

Cc1ccc(Nc2nccc(N(C)c3ccc4c(C)n(C)nc4c3)n2)cc1[S+](N)(=O)[O-] [Pazopanib]
AC50 for growth inhibition (log10 M): -4.78

CSCC[C@H](NC(=O)[C@H](Cc1c[nH]c2ccccc12)NC(=O)CCNC(=O)OC(C)(C)C)C(=O)N[C@@H](CC(=O)O)C(=O)N[C@@H](Cc1ccccc1)C(N)=O [Pentagastrin]
AC50 for growth inhibition (log10 M): -5.28

N=C(N)c1ccc(OCCCCCOc2ccc(C(=N)N)cc2)cc1 [Pentamidine isethionate]
AC50 for growth inhibition (log10 M): -4.83

OC[C@H]1O[C@H](C[C@@H]1O)[N]2C=NC3=C2\N=C/NC[C@H]3O [Pentostatin]
AC50 for growth inhibition (log10 M): -4.68

N=C(N)NC(=N)NCCc1ccccc1 [Phenformin hydrochloride]
AC50 for growth inhibition (log10 M): -5.88

COc1cc([C@@H]2c3cc4c(cc3[C@H](O)[C@H]3COC(=O)[C@H]23)OCO4)cc(OC)c1OC [Picropodophyllin]
AC50 for growth inhibition (log10 M): -8.43

O=C([O-])C[C@H](O)C[C@H](O)/C=C/c1c(C2CC2)nc2ccccc2c1-c1ccc(F)cc1 [Pitavastatin calcium]
AC50 for growth inhibition (log10 M): -5.03

CC[C@@H]([C@H](C)O)n1ncn(-c2ccc(N3CCN(c4ccc(OCC5CO[C@@](Cn6cncn6)(c6ccc(F)cc6F)C5)cc4)CC3)cc2)c1=O (stereo partly specified) [Posaconazole]
AC50 for growth inhibition (log10 M): -4.73

CC(=O)Oc1cc2c(s1)CCN(C(C(=O)C1CC1)c1ccccc1F)C2.Cl (stereo unspecified) [Prasugrel]
AC50 for growth inhibition (log10 M): -6.08

CC(=O)[C@H]1CC[C@H]2[C@@H]3C/C=C4/C[C@@H](O)CC[C@]4(C)[C@H]3CC[C@]12C [Pregnenolone]
AC50 for growth inhibition (log10 M): -4.88

CC(C)(Sc1cc(C(C)(C)C)c(O)c(C(C)(C)C)c1)Sc1cc(C(C)(C)C)c(O)c(C(C)(C)C)c1 [Probucol]
AC50 for growth inhibition (log10 M): -5.58

CC(=O)[C@H]1CC[C@H]2[C@@H]3CCC4=CC(=O)CC[C@]4(C)[C@H]3CC[C@]12C [Progesterone]
AC50 for growth inhibition (log10 M): -4.78

C[C@@H]1O[C@@H](O[C@H]\2CC[C@]\3(C)[C@@H]4CC[C@]5(C)[C@@H](CC[C@@]5(O)[C@H]4CCC3=C2)C/6=C/OC(=O)/C=C6)[C@H](O)[C@H](O)[C@@H]1O [Proscillaridin]
AC50 for growth inhibition (log10 M): -7.68

CCCCC[C@H](O)/C=C/[C@H]1[C@H](O)CC(=O)[C@@H]1C/C=C\CCCC(=O)O [Prostaglandin E2]
AC50 for growth inhibition (log10 M): -5.18

COCCCN1CCC(NC(=O)c2cc(Cl)c(N)c3c2OCC3)CC1 [Prucalopride]
AC50 for growth inhibition (log10 M): -4.58

CC(C)[C@H](CO)Nc1nc(Nc2cccc(Cl)c2)c2ncn(C(C)C)c2n1 [Purvalanol A]
AC50 for growth inhibition (log10 M): -4.68

COc1cc(Nc2ncc(F)c(Nc3ccc4c(n3)NC(=O)C(C)(C)O4)n2)cc(OC)c1OC [R406]
AC50 for growth inhibition (log10 M): -4.63

OCc1ccc(-c2ccc(-c3ccc(CO)s3)o2)s1 [RITA]
AC50 for growth inhibition (log10 M): -4.93

CCOC(=O)Nc1ccc(NCc2ccc(F)cc2)cc1N [Retigabine]
AC50 for growth inhibition (log10 M): -4.83

CO[C@H]1/C=C/O[C@@]2(C)Oc3c(C)c(O)c4c(c3C2=O)C2=NC3(CCN(CC(C)C)CC3)NC2=C(NC(=O)/C(C)=C\C=C\[C@H](C)[C@H](O)[C@@H](C)[C@@H](O)[C@@H](C)[C@H](OC(C)=O)[C@@H]1C)C4=O [Rifabutin]
AC50 for growth inhibition (log10 M): -4.63

Nc1nc2ccc(OC(F)(F)F)cc2s1 [Riluzole]
AC50 for growth inhibition (log10 M): -4.73

O=C(C[C@@H]1C/C=C\CCC(=O)O[C@H](c2ccccc2)CNC1=O)NCc1ccc(Cl)cc1 [Robotnikinin]
AC50 for growth inhibition (log10 M): -5.43

[O-]C(=O)C1=C(C(=C(Cl)C(=C1Cl)Cl)Cl)C/2=C/3\C=C(I)/C(=O)/C(=C3OC4=C2C=C(I)C(=C4I)[O-])I [Rose Bengal disodium]
AC50 for growth inhibition (log10 M): -4.93
